Assay results published in article PMC11855827, “High-Throughput Screening of Five Compound Libraries for Anthelmintic Activity and Toxicity Leads to the Discovery of Two Flavonoid Compounds” (International Journal of Molecular Sciences, 2025).
“And” between values parts separate entries of the source, which are not always exact repeats. Equal values may be shown once. Read-outs that look alike come from different tables or passages of the source. Each block holds one compound with its values, some of them ahead of it.

Key:
[1] = tested on: C. elegans
[2] = in vitro; conditions: C57BL/6, mouse
[3] = tested on: T. circumcincta resistant strain; assay: Egg hatch inhibition (EHI), ovicidal effect; set-up: species or system Teladorsagia circumcincta; conditions: for EC50: egg hatching, resistant T. circumcincta, nine replicates, read-out: Ovicidal Effect EC50 (μM) T. c
[4] = Spheroids toxicity assay (alamarBlue); type: cell-based; conditions: human; for CC50 at 3 d: HepG2 liver spheroids (3D culture)
Procedure: (§1) HepG2 cells were cultured as a monolayer under standard conditions, using DMEM/F12 medium supplemented with L-glutamine and 15 mM HEPES buffer (pH 7.2) supplemented with 10% fetal bovine serum (FBS) and antibiotic mixture (100 U/mL penicillin and 100 µg/mL streptomycin) at 37 °C and 5% CO2, according to previous published protocols.
(§2) Cells were detached from the culture flask using 0.25% trypsin solution and then centrifuged at 500× g for 6.5 min. After centrifugation, the supernatant was discarded, and the pellet was resuspended in culture medium. Cells were passed gently through a G27 needle several times and then counted. Cells were dispensed into a tissue treated Nunclon™ Sphera™ 96-well U-bottom plate (Thermo Scientific™, Waltham, MA, USA, 174925) in a final volume of 50 µL to a total of 2500 cells/well. In addition, another 50 µL of medium supplemented with Rat Tail Collagen I (Gibco™, Thermo Scientific™, Waltham, MA, USA, A1048301) was dispensed, to achieve a final concentration in a plate of 3 µg/mL for each well. The plate was centrifuged at 500× g for 1 min.
(§3) On Day 4, 100 µL of a serial dilution of the testing compounds were added to each well. For controls, 0.03% H2O2 (v/v) as positive control and 0.2% DMSO (v/v) as negative control were used.
(§4) To determine the viability of the spheroids to the testing compounds, a 20% of alamarBlue™ HS reagent (Invitrogen™, Thermo Fisher Scientific™, Waltham, MA, USA) was added on Day 7 and the results were read 24 h later using a Varioskan™ LUX (Thermo Scientific, USA, Instrument software ver. 1.00.37, Skanlt software ver. 5.0.0.42). All assays were conducted in duplicate across at least three independent experiments.

[5] = tested on: C. elegans; assay: C. elegans motility dose-response (DR) assay; set-up: species or system Caenorhabditis elegans
[6] = tested on: C. elegans; assay: microbe, parasite or virus in culture; conditions: Caenorhabditis elegans
[7] = tested on: C. elegans; conditions: cited from earlier work
[8] = tested on: H. contortus susceptible strain; assay: Egg hatch inhibition (EHI), ovicidal effect; set-up: species or system Haemonchus contortus; conditions: for EC50: egg hatching, susceptible H. contortus, nine replicates, read-out: Ovicidal Effect EC50 (μM) H. c
[9] = tested on: T. circumcincta resistant strain; assay: Larval migration inhibition test (LMIT); set-up: species or system Teladorsagia circumcincta; conditions: Teladorsagia circumcincta, 24 h; resistant strain, L3, 100 μM; NE = Not Effective at 100 μM; control ivermectin 8.75 µg/mL; read-out: T. circumcincta LMIT (%)
Text: (§5) Eggs and third instar larvae (L3) of H. contortus from a field strain and a resistant strain of T. circumcincta were used in the current trials. These parasitic forms were obtained from fresh feces of Merino and Churra sheep experimentally infected at the experimental farm of the Instituto de Ganadería de Montaña (IGM, CSIC, Gruyeros, León, Spain) and purified according to previously described methods. Briefly, eggs were taken from fresh feces, washed, centrifuged and floated with a saturated sodium chloride solution, then concentrated, counted and used in the assays. L3 were obtained by culturing feces at 25 °C for 13 d. L3 larvae were […] in 0.5% sodium hypochlorite solution for 10 min at room temperature and washed to avoid excess salt. After washing, they were concentrated and counted for use.
(§6) The viability of H. contortus larvae was assessed by the larval migration inhibition test (LMIT) according to previously described methods. Briefly, 700 µL aliquots containing 500–600 L3 were prepared for each compound. […] After a 24 h incubation at 28 °C, the compound was removed by three washes, leaving a final volume of 1400 µL. After the washes, three 400 µL aliquots were taken from each tube and transferred to a 96-well plate with a MultiScreen mesh filter. The plates were incubated for a further 24 h at 28 °C to allow the motile L3 to pass through the 20 µm mesh for counting. Then, the number of larvae present in each well was counted to determine percentage of larval migration for each compound: % Larval migration=number of larvae migrating in compound wells/number of larvae migrating in negative control×100
(§7) For the larvae, ivermectin at 8.75 µg/mL and DMSO 0.5% (v/v) were used as controls and at least 12 replicates were performed. […] EC50 were determined by plotting the percentage of viability of the L1 against the concentration of each compound, using the nonlinear fit analysis provided by the SigmaPlot® 10.1.

[10] = tested on: H. contortus susceptible strain; assay: Larval migration inhibition test (LMIT); set-up: species or system Haemonchus contortus; conditions: L3, 100 μM, NE = Not Effective at 100 μM, control ivermectin 8.75 µg/mL; for inhibition at 100 µM: Haemonchus contortus, 24 h
Text: as §5, §6, §7

[11] = Mouse intestinal organoids' tolerance assay (alamarBlue); conditions: C57BL/6, mouse; for selectivity ratio at 3 d: mouse intestinal organoids (enteroids)
[12] = tested on: Staphylococcus epidermidis, Escherichia coli, and Candida albicans; set-up: method as in earlier work; conditions: in vitro; cited from earlier work
[13] = Globally Harmonized System (GHS) / ECHA; cited from earlier work
[14] = tested on: H. contortus L3-L4; conditions: read-out: IC50 against H. contortus L3-L4; cited from earlier work
[15] = mice, estimated; cited from earlier work
[16] = human poisoning case; cited from earlier work
[17] = tested on: HepG2 liver spheroids; assay: Spheroids toxicity assay (alamarBlue); type: cell-based
Procedure: as §1, §2, §3, §4

[18] = tested on: mouse intestinal organoids (enteroids); conditions: C57BL/6, mouse
[19] = tested on: mouse intestinal organoids (enteroids); assay: Mouse intestinal organoids' tolerance assay (alamarBlue); conditions: read-out: Citotoxicity CC50 (μM) Ent; mouse enteroid
[20] = Teladorsagia circumcincta, resistant strain, 100 μM, NE = Not Effective at 100 μM, control thiabendazole 0.1 µg/mL
[21] = read-out: Citotoxicity CC50 (μM) Sph
[22] = read-out: EC50 (μM) at 24 h, C. elegans motility, DR assay
[23] = 0 h, read-out: Inhibition (%) 110 μM (0 h), C. elegans L4 motility, 110 μM, 0 h, mean ± SD of four experiments
[24] = 24 h, read-out: Inhibition (%) 110 μM (24 h), C. elegans L4 motility, 110 μM, 24 h, mean ± SD of four experiments
[25] = Haemonchus contortus, susceptible strain, 100 μM, NE = Not Effective at 100 μM, control thiabendazole 0.1 µg/mL
[26] = Selective Index (SI) CC50/EC50 Ent/H. c, CC50 mouse enteroid / EC50 H. contortus
[27] = Selective Index (SI) CC50/EC50 Ent/T. c, CC50 mouse enteroid / EC50 T. circumcincta
[28] = HepG2 liver spheroids, read-out: Citotoxicity CC50 (μM) Sph

Structure (SMILES): O=C(/C=C/c1ccccc1)c1ccccc1 [Chalcone]
Percentage of motility inhibition 24 h ([1]; 24 h, 110 µM): 86%
selectivity ratio ([2]; Selective Index (SI) CC50/EC50 Ent/H. c): > 13.5
selectivity ratio ([2]; Selective Index (SI) CC50/EC50 Ent/T. c): > 5.1
EC50 ([3]; Teladorsagia circumcincta): 9.8 ± 0.3 µM
inhibition at 100 µM [3, 20]: 100%
CC50 at 3 d [4, 21]: > 90 µM
selectivity ratio ([4]; pH 7.2, Selective Index (SI) CC50/EC50 Sph/H. c): > 24.3
selectivity ratio ([4]; pH 7.2, Selective Index (SI) CC50/EC50 Sph/T. c): > 9.2
EC50 [5, 22]: 52.4 ± 1.4 µM
inhibition at 110 µM [6, 23]: 30 ± 30%
inhibition at 110 µM [6, 24]: 85 ± 15%
EC50 ([7]; nematocidal, read-out: EC50 against C. elegans): 52 ± 9 µM
EC50 ([8]; Haemonchus contortus): 3.7 ± 0.1 µM
inhibition at 100 µM [8, 25]: 99.4 ± 0.1%
inhibition at 100 µM [9]: 4.7 ± 1.5%
H. contortus LMIT (%) [10]: 45.7 ± 4.5%
CC50 at 3 d [11]: > 50 µM

EC50 ([5]; Caenorhabditis elegans, 24 h, read-out: EC50 (μM) at 24 h, C. elegans motility, DR assay, 24 h): 6.9 ± 0.5 µM
Structure (SMILES): CCCCCCCCN=c1ccn(CCCCCCCCCCn2ccc(=NCCCCCCCC)cc2)cc1 [Octenidine, reference compound]
EC50 ([3]; Teladorsagia circumcincta): 15.1 ± 4.8 µM
inhibition at 100 µM [3, 20]: 99.5 ± 0.9%
Concentration leading to a microbial reduction of more than 99% within 15 min [12]: below 1.5 μM
CC50 at 3 d [4, 21]: 54.1 ± 2.8 µM
selectivity ratio at 3 d ([4]; HepG2 liver spheroids, pH 7.2, CC50 HepG2 spheroids / EC50 H. contortus, read-out: Selective Index (SI) CC50/EC50 Sph/H. c): 25.8
selectivity ratio at 3 d ([4]; HepG2 liver spheroids, pH 7.2, CC50 HepG2 spheroids / EC50 T. circumcincta, read-out: Selective Index (SI) CC50/EC50 Sph/T. c): 3.6
inhibition at 110 µM [6, 23]: 84 ± 1%
inhibition at 110 µM [6, 24]: 96 ± 5%
EC50 ([8]; Haemonchus contortus): 2.1 ± 0.1 µM
inhibition at 100 µM [8, 25]: 99.5 ± 0.8%
inhibition at 100 µM [9]: 94.8 ± 4.3%
GHS classification [13]: category 4: acute toxicity
inhibition at 100 µM [10]: 98.3 ± 0.3%
CC50 at 3 d [11]: 14.2 ± 0.4 µM
selectivity ratio at 3 d [11, 26]: 6.8
selectivity ratio at 3 d [11, 27]: 0.9

Structure (SMILES): CCc1nn(C)c(C(=O)NCc2ccc(Oc3ccc(C)cc3)cc2)c1Cl [Tolfenpyrad]
CC50 [2]: < 1 µM
selectivity ratio [2, 26]: < 0.7
selectivity ratio [2, 27]: < 5
EC50 ([3]; Teladorsagia circumcincta): 0.2 ± 0.3 µM
inhibition at 100 µM [3, 20]: 99.7 ± 0.5%
selectivity ratio ([4]; pH 7.2, CC50 HepG2 spheroids / EC50 H. contortus, read-out: Selective Index (SI) CC50/EC50 Sph/H. c): > 33.3
selectivity ratio ([4]; pH 7.2, CC50 HepG2 spheroids / EC50 T. circumcincta, read-out: Selective Index (SI) CC50/EC50 Sph/T. c): 250
CC50 [4, 28]: > 50 µM
EC50 ([5]; Caenorhabditis elegans, read-out: EC50 (μM) at 24 h, C. elegans motility, DR assay): 2.4 ± 0.2 µM
inhibition at 110 µM ([6]; 0 h, read-out: Inhibition (%) 110 μM (0 h)): 80 ± 2%
inhibition at 110 µM ([6]; 24 h, read-out: Inhibition (%) 110 μM (24 h)): 98 ± 2%
EC50 ([7]; read-out: EC50 found in the literature): 3.6 µM
EC50 ([8]; Haemonchus contortus): 1.5 ± 0.1 µM
inhibition at 100 µM [8, 25]: 96 ± 2.9%
IC50 [14]: 0.02 to 3 µM
GHS classification [13]: category 4: acute toxicity
Maximum tolerated dose (MTD) [15]: 1 mg/kg
Plasma concentration in a poisoning case [16]: 1.97 µg/mL and 5.08 µM
inhibition at 100 µM [10]: 9 ± 6.3%

Structure (SMILES): O=C(/C=C/c1ccccc1)c1ccccc1 [Trans-chalcone]
Inhibition (%) 110 μM (0 h) ([1]; 0 h, 110 μM): 16 ± 17%
Inhibition (%) 110 μM (24 h) ([1]; 24 h, 110 µM): 95 ± 5%
EC50 [3]: 4.9 ± 0.2 µM
T. circumcincta EHI (%) ([3]; resistant strain, 100 μM, NE = Not Effective at 100 μM, control thiabendazole 0.1 µg/mL): 99.9 ± 0.2%
CC50 [17, 28]: > 90 µM
Selective Index (SI) CC50/EC50 Sph/H. c ([17]; human, pH 7.2): >29.0
Selective Index (SI) CC50/EC50 Sph/T. c ([17]; human, pH 7.2): >18.4
EC50 [5, 22]: 24.9 ± 1.8 µM
inhibition at 110 µM ([6]; 0 h, read-out: Percentage of motility inhibition 0 h, Table S2, C. elegans SS assay, 110 μM, 0 h, averages of 4 data points): 17%
inhibition at 110 µM ([6]; 24 h, read-out: Percentage of motility inhibition 24 h, Table S2, C. elegans SS assay, 110 μM, 24 h, averages of 4 data points): 96%
EC50 [8]: 3.1 ± 0.2 µM
H. contortus EHI (%) ([8]; susceptible strain, 100 μM, NE = Not Effective at 100 μM, control thiabendazole 0.1 µg/mL): 99.5 ± 0.7%
H. contortus LMIT (%) [10]: 20.3 ± 7.5%
Selective Index (SI) CC50/EC50 Ent/H. c [18]: >16.1
Selective Index (SI) CC50/EC50 Ent/T. c [18]: >10.2
CC50 [19]: > 50 µM
